Key:
[1] = Unbound exposure in blood (dry blood spots, LC/MSMS, fraction unbound by dialysis) in threshold tracking study; format: in vivo; conditions: rat
Experimental: In threshold tracking assay to measure the excitability properties of peripheral axons studies in rat, compound is administered by IP at 3, 10 or 30 mg/kg using 1% hydroxyethylcellulose: 0.25% polysorbate 80:0.05% antifoam:purified water (HEC) formulation. Dry blood spots (DBS) are collected around 10, 20, 30 and terminal 40 min post-dose. DBS samples are dried at RT for around 2 h. Brain samples are obtained at terminal time point and frozen until analysis. DBS samples are shipped and stored at RT.
A 1-mg/mL stock solution of Example 1 is prepared and is serially diluted into pooled rat blood to prepare standards ranging from 1 to 10000 ng/mL. Blood wis spiked to blank DBS cards to make the standards. One 3 mm punch of the DBS standards or samples are added to 96 well plate and 180 μL of the internal standard (IS) in 1:1 ACN:MeOH is added. Shake for 45 min, dilute the extraction solution two fold with water, and analyze by LC/MSMS for drug concentration analysis.
Samples and standards are analyzed with a Sciex API 4000 Triple Quadrupole Mass Spectrometer (Sciex, Division of MDS Inc., Toronto, Canada) coupled to a Shimadzu HPLC System (LC-IOAD, Shimadzu Corporation) and a Gilson 215 Autosampler. […] Quantitation is performed using multiple reaction monitoring (MRM) at the following transitions: Example 1 (m/z 350.2 to m/z 233.0) and an analog internal standard (m/z 263.1 to m/z 148.1). […]
Drug binding to rat plasma proteins and brain homogenates is determined using in vitro dialysis method after spiking drug into these matrixes and incubated over 4.5 h at 37° C., while undergoing orbital shaking. […] Parent is quantitated by LC-MSMS at both 0 and […] time points. Fraction unbound is calculated by dividing the concentration of the buffer side by the concentration of the protein side. Percent recovery is also calculated by dividing the sum of the buffer and protein chambers by the time 0 concentration after 4.5 h. […]

[2] = molecular target: T1, hKv7.2 and hKv7.3 (Kv7.2/7.3) (Homo sapiens, UniProt O43525+O43526); assay: Modulation of Kv7.2/7.3 conductance, automated electrophysiology (IonWorks Barracuda, population patch clamp) in HEK293 cells; format: cell-based; set-up: Voltage Shift ([…]V0.5), Mean: unit not given here
T1 construct: host or cells: HEK293
Experimental: Modulation of Kv7.2/7.3 Conductance by Kv7 Potentiators in a Mammalian Expression System
The potency and efficacy of Kv7 potentiators is assessed by automated electrophysiology on the IonWorks Barracuda (Molecular Devices) platform using the population patch clamp mode of the instrument.
Cell Culture: HEK293 cells stably expressing hKv7.2 (under tetracycline induction) and hKv7.3 (Catalog #CT6147, Charles River) are used for these studies. Cells are maintained in a Dulbecco's modified Eagle's medium/nutrient mixture Ham's F-12 (Sigma-Aldrich) supplemented with 5% tetracycline-screened fetal bovine serum (Sigma-Aldrich), 15 mM HEPES, 500 μg/mL G418, 100 U/mL penicillin, 100 μg/mL streptomycin, […] L-glutamine, 100 μg/mL zeocin, and 5 μg/mL blasticidin. Expression of hKv7.2 is induced by addition of 1 μg/mL doxycycline 24 h prior to recordings.
Cells are cultured in Corning T-150 flasks to a confluence of 85%-95%. At the start of an experiment, cells are washed once with D-PBS without calcium and magnesium and then dissociated by incubating in 3 ml of 0.25% trypsin for 8 min at 37° C. Cells ware resuspended in media, triturated gently, and centrifuged for 4 min at 1,000 rpm. Cells are resuspended in external solution to a final concentration of 2.5-3.5M cells/mL.
Solutions: External solution w is composed of (in mM): 140 NaCl, 5 KCl, 2 CaCl2, 1 MgCl2, 10 HEPES, 10 Glucose, pH 7.4. Internal solution is composed of (in mM): 90 K-gluconate, 40 KCl, 3.2 EGTA, 3.2 MgCl2, 5 HEPES, pH 7.25. The membrane perforating agent amphotericin B is prepared daily as a 27 mg/mL stock solution in DMSO and then added to the internal solution to a final concentration of 0.1 mg/mL. Test article dilutions are prepared in 384-well plates from 10 mM DMSO stock solutions and diluted using acoustic dispensing (Labcyte ECHO®), such that final DMSO concentrations are 0.1%.
Electrophysiological Recordings: Resuspended cells are placed on the IONWORKS® BARRACUDA™ (IWB) instrument, external solution is added to a 384-well patch plate, and a hole test is performed to determine blocked wells and offset voltages. Cells are then added to the patch plate (9 μL per well) by the instrument. Two seal tests are performed prior to introducing the perforating agent amphotericin in the internal solution and allowing approximately 8 min to obtain electrical access, which is verified by a third seal test. The command voltage protocol consists of a family of 1 sec voltages steps from −80 mV to +40 mV from a holding potential of −80 mV and is applied prior to (baseline) and 6 min after test article addition.
Data Analysis: Data are acquired and leak subtracted using IWB software. Current amplitudes during the last 10 msec of each voltage step are averaged and exported. Further analysis is performed using Microsoft Excel and GraphPad Prism. Current amplitude is converted to conductance (G) by the following formula: G=I/(V−Ek) where I=current, V=step potential, Ek=potassium reversal potential (−84 mV). Conductance in the presence of test article is normalized to the baseline conductance at +40 mV for the same well. Conductance-voltage (G−V) curves are fitted with the Boltzmann equation y=Bottom+(Top−Bottom)/(1+EXP((Vm−V0.5/k)).
Fitting a 4-parameter logistic equation to the data may be used to determine the potency (EC50) and efficacy (maximal shift) for each test compound.

[3] = 4-parameter logistic fit of voltage shift data

For `CC(C)(C)[C@H](O)CNC(=O)NCc1ccnc(OCC(F)(F)F)c1` [Example 1, 1-[(2S)-2-hydroxy-3,3-dimethyl-butyl]-3-[[2-(2,2,2-trifluoroethoxy)-4-pyridyl]methyl]urea], the “Unbound Exposure in Blood (±SEM)” value ([1]; 3 mg/kg (IP)) was 145 (±90) nM, the “Unbound Exposure in Blood (±SEM)” value ([1]; 10 mg/kg (IP)) was 193 (±50) nM and the “Unbound Exposure in Blood (±SEM)” value ([1]; 30 mg/kg (IP)) was 352 (±245) nM. The “Voltage Shift ([…]V0.5), Mean” value ([2]; 0.0005 μM) was 2.6, the “Voltage Shift ([…]V0.5), Mean” value ([2]; 0.0015 μM) was 2.0 and the “Voltage Shift ([…]V0.5), Mean” value ([2]; 0.005 μM) was 3.0. The “Voltage Shift ([…]V0.5), Mean” value ([2]; 0.01 μM) was 1.6, the “Voltage Shift ([…]V0.5), Mean” value ([2]; 0.04 μM) was 1.3 and the “Voltage Shift ([…]V0.5), Mean” value ([2]; 0.12 μM) was 0.0. The “Voltage Shift ([…]V0.5), Mean” value ([2]; 0.37 μM) was −3.5, the “Voltage Shift ([…]V0.5), Mean” value ([2]; 1.11 μM) was −13.2 and the “Voltage Shift ([…]V0.5), Mean” value ([2]; 3.33 μM) was −28.0. The “Voltage Shift ([…]V0.5), Mean” value ([2]; 10 μM, difference from control in voltage at half-maximal conductance) was −38.0, the “Maximal Shift (efficacy)” value [2, 3] was −44 and the Slope [2, 3] was 1.2. For the same compound, the EC50 ([2]; 4-parameter logistic fit of voltage shift data, read-out: EC50 (potency of V0.5 shift)) was 2000 nM.
